Columns and labels:
AtGA2ox3 = molecular target: T1, AtGA2ox3 (Arabidopsis thaliana, UniProt O64692); test: Incubation of recombinant GA 2-oxidase AtGA2ox3 (E. coli lysate) with 14C-labelled GA substrates; format: biochemical; conditions: for 2β-Hydroxy GA product / GA-catabolite Product: E. coli cell lysate, 14C-labelled GA substrate and cofactors, 2.5 h, HPLC-radiomonitoring
T1 construct: made in house; host or cells: E. coli (crude cell lysate)
T1 sequence (O64692 1-335): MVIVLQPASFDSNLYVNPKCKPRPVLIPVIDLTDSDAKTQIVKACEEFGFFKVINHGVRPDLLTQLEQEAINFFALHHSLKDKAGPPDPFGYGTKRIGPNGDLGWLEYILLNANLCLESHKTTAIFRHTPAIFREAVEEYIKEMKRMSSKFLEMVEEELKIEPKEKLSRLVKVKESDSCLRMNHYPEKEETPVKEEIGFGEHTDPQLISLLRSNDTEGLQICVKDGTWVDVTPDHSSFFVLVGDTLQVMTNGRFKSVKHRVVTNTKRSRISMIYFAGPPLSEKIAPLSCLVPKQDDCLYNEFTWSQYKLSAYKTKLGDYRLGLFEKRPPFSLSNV
Method: (§1) GA 2β-hydroxylase activity was determined by measuring the release of 3H2O from a 2β tritiated GA substrate, as described by Smith and MacMillan (Smith, V. A., and MacMillan, J. in J. Plant Growth Regulation 2 251-264 (1984)). The bacterial lysate (90 μl) was incubated with [1,2-^3H2]GA4 or [2,3-^3H2]GA9 (ca. 50000 dpm), in the presence of 4 mM 2-oxoglutarate, 0.5 mM Fe(II)SO4, 4 MM ascorbate, 4 mM DTT, 1 mg/ml catalase, 2 mg/ml BSA, in a final reaction volume of 100 μl. The mixture was incubated at 30° C. for 60 min. The tritiated GAs were removed by the addition of 1 ml of activated charcoal (5% w/v) and subsequent centrifugation for 5 min in a microfuge. Aliquots (0.5 ml) of the supernatant were mixed with 2 ml scintillation fluid and the radioactivity determined by scintillation counting.
(§2) In order to confirm the function of the cDNA expression products, bacterial lysate was incubated with [17-^14C]GAs in the presence of cofactors, as described above. After the incubation, acetic acid (10 μl) and water at pH 3 (140 μl) were added, and the mixture was centrifuged at 3,000 rpm for 10 min. The supernatant was analysed by HPLC with on-line radiomonitoring and products identified by GC-MS, as described previously (MacMillan et al Plant Physiol. 113 1369-1377 (1997)).
(§3) The catalytic properties of the recombinant proteins obtained by expressing the cDNAs from P. coccineus (PcGA2ox1) and A. thaliana (AtGA2ox1, AtGA2ox2 and AtGa2ox3) in E. coli were examined by incubating in the presence of dioxygenase cofactors with a range of ^14C-labelled GA substrates, consisting of the C19-GAs GA1, GA4, GA9 and GA20, and the C20-GAs, GA12 and GA15. This last compound was incubated in both its closed and open lactone forms. […] The mass spectnum of the product from GA15 is consistent with it being 2β-hydroxyGA15, although, because the authentic compound is not available for comparison, the identity of this product is tentative.
(§4) Values are % yield by HPLC-radiomonitoring of products after incubation of cell lysates from E. coli expressing the cDNA with ^14C-labelled GA substrate and cofactors for 2.5 h. Products and substrate were separated by HPLC and products identified by GC-MS. Where combined yield of products <100%, the remainder is unconverted substrate.

[1] = system: severely dwarfed 35S-PcGA2ox1 line; test: Metabolism of C19-GAs in a severely dwarfed 35S-PcGA2ox1 line compared with wild-type plants (HPLC); format: in vivo, Arabidopsis; conditions: severely dwarfed line versus wild-type, on the basis of HPLC
Text: Metabolism of C19-Gas was compared in a severely dwarfed […] line with that in wild-type plants. […] Therefore, this GA can be used, when required, to reverse the GA-deficiency resulting from overexpressing GA 2-oxidase genes.

AtGA2ox2 = molecular target: T2, AtGA2ox2 (Arabidopsis thaliana, UniProt Q9XFR9); test: Incubation of recombinant GA 2-oxidase AtGA2ox2 (E. coli lysate) with 14C-labelled GA substrates; format: biochemical; conditions: for 2β-Hydroxy GA product / GA-catabolite Product: E. coli cell lysate, 14C-labelled GA substrate and cofactors, 2.5 h, HPLC-radiomonitoring; for conversion of C20-GA substrate: 14C-labelled substrate, dioxygenase cofactors
T2 construct: made in house; host or cells: E. coli (crude cell lysate)
T2 sequence (Q9XFR9 1-341): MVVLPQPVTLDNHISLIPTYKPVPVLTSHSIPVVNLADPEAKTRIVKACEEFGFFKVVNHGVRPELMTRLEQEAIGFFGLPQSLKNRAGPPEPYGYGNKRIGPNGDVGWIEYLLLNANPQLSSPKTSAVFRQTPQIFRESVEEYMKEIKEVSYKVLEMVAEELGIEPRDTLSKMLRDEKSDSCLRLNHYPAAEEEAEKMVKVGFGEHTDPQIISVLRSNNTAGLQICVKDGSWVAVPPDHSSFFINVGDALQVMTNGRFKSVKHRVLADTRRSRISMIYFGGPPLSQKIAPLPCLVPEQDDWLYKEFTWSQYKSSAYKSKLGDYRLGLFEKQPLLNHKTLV
Method: as §1, §2, §3, §4

PcGA2ox1 = molecular target: T3, PcGA2ox1 (Phaseolus coccineus, UniProt Q9XG83); test: Incubation of recombinant GA 2-oxidase PcGA2ox1 (E. coli lysate) with 14C-labelled GA substrates; format: biochemical; conditions: for 2β-Hydroxy GA product / GA-catabolite Product: E. coli cell lysate, 14C-labelled GA substrate and cofactors, 2.5 h, HPLC-radiomonitoring; for conversion of C20-GA substrate: 14C-labelled substrate, dioxygenase cofactors
T3 construct: unnamed vector-encoded fusion partner (phagemid expression); made in house; host or cells: E. coli (crude cell lysate)
T3 sequence (Q9XG83 1-331): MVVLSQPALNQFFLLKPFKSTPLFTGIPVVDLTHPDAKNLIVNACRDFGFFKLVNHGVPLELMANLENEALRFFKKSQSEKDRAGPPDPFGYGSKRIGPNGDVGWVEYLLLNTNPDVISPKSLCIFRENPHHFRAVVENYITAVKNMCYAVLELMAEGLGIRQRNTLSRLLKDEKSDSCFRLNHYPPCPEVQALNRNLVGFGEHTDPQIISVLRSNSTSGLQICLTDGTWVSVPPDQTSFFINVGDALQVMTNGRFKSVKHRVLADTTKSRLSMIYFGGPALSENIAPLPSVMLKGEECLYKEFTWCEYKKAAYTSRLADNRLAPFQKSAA
Method: as §1, §2, §3, §4

AtGA2ox1 = molecular target: T4, AtGA2ox1 (Arabidopsis thaliana, UniProt Q8LEA2); test: Incubation of recombinant GA 2-oxidase AtGA2ox1 (E. coli lysate) with 14C-labelled GA substrates; format: biochemical; conditions: for 2β-Hydroxy GA product: E. coli cell lysate, 14C-labelled GA substrate and cofactors, 2.5 h, HPLC-radiomonitoring
T4 construct: made in house; host or cells: E. coli (crude cell lysate)
T4 sequence (Q8LEA2 1-329): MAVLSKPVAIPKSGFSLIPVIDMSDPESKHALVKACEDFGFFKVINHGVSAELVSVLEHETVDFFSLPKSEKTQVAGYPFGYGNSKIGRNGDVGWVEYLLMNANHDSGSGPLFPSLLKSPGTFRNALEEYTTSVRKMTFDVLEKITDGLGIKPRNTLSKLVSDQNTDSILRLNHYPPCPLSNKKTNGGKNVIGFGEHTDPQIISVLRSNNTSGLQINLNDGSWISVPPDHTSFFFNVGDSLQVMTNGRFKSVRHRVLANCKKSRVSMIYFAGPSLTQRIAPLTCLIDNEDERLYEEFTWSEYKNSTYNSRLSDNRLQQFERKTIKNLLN
Method: as §1, §2, §3, §4

[2] = system: T3 and T24 (AtGA2ox1 and AtGA2ox2) transcript; test: Northern blot of GA 2-oxidase genes T3 and T24 after GA3 treatment of GA-deficient mutant; format: in vivo, Arabidopsis; conditions: immature flower buds and pedicels of GA-deficient mutant gal-2, after treatment
GA 2-oxidases = test: Substrate test with recombinant enzyme (GA 2-oxidases, enzyme not specified); format: biochemical
[3] = system: 35S-PcGA2ox1 transgenic Arabidopsis lines; test: GA3 treatment of Arabidopsis transformants overexpressing P. coccineus GA 2-oxidase; format: in vivo
Method: The transformation of Arabidopsis plants with P. coccineus GA 2-oxidase cDNA under the control of the CaMV ^35S promoter yielded the following results.
Five Arabidopsis lines that are homozygous for the 35S-PcGA2ox1 transgene were obtained. […] No flower buds were obtained when plants were grown in short photoperiods.

[4] = system: 2-oxoglutarate-dependent dioxygenases; conditions: pea seeds; cited from earlier work
[5] = 14C-labelled substrate, dioxygenase cofactors

Compound | 2β-Hydroxy GA product (AtGA2ox3) | conversion to 2-oxidised products / metabolism by the dwarf line [1] | 2β-Hydroxy GA product (AtGA2ox2) | 2β-Hydroxy GA product (PcGA2ox1) | 2β-Hydroxy GA product (AtGA2ox1) | conversion of C20-GA substrate (AtGA2ox2) | conversion of C20-GA substrate (PcGA2ox1) | other results
C=C1C[C@]23C[C@@]1(O)CC[C@H]2[C@@]12CC[C@H](O)[C@@](C)(C(=O)O1)[C@H]2[C@@H]3C(=O)O [GA1] | 100 % yield | to a much greater extent than did the wild-type | 100 % yield | 100 % yield | 41 % yield | – | – | GA-catabolite Product (AtGA2ox3): Trace
C=C1C[C@]23C[C@@]1(O)CC[C@H]2[C@@]12C=C[C@H](O)[C@@](C)(C(=O)O1)[C@H]2[C@@H]3C(=O)O [GA3] | – | did not metabolise | – | – | – | – | – | transcript abundance for both T3 and T24 [2]: increased; substrate for the GA 2-oxidases (GA 2-oxidases): not a substrate; effect on bolting and flowering of the transgenic lines ([3]; 10 μM GA3, homozygous 35S-PcGA2ox1 lines): enabled them to bolt and produce normal flowers that set viable seed; response of dwarf transformants to treatment ([3]; Arabidopsis transformants, CaMV 35S promoter, concentration not given): increased stem elongation and normal flower development
C=C1C[C@]23C[C@H]1CC[C@H]2[C@@]12CC[C@H](O)[C@@](C)(C(=O)O1)[C@H]2[C@@H]3C(=O)O [GA4] | 86 % yield | to a much greater extent than did the wild-type | 77 % yield | 83 % yield | 25 % yield | – | – | GA-catabolite Product (AtGA2ox3): 14 % yield; GA-catabolite Product (AtGA2ox2): 23 % yield; GA-catabolite Product (PcGA2ox1): 17 % yield
C=C1C[C@]23C[C@H]1CC[C@H]2[C@@]12CCC[C@@](C)(C(=O)O1)[C@H]2[C@@H]3C(=O)O [GA9] | 100 % yield | to a much greater extent than did the wild-type | – | 87 % yield | 91 % yield | – | – | activity for 2β-hydroxylation of GA9, dependence on pH (AtGA2ox3; between pH 6.5 and 8): varied little; GA-catabolite Product (AtGA2ox2): 100 % yield; activity for 2β-hydroxylation of GA9, dependence on pH (AtGA2ox2; between pH 6.5 and 8): varied little; GA-catabolite Product (PcGA2ox1): 13 % yield; activity for 2β-hydroxylation of GA9, dependence on pH (PcGA2ox1; between pH 6.5 and 8): varied little; pH at which activity for 2β-hydroxylation of GA9 peaked (AtGA2ox1): 7; activity for 2β-hydroxylation of GA9 (AtGA2ox1; pH ≦5.9 and ≧8.1): no detectable activity
C=C1C[C@]23C[C@H]1CC[C@H]2[C@]1(C)CCC[C@@](C)(C(=O)O)[C@H]1[C@@H]3C(=O)O [GA12] | – | – | – | – | – | No conversion | No conversion | conversion of C20-GA substrate (AtGA2ox3; [5]): No conversion; conversion of C20-GA substrate (AtGA2ox1; [5]): No conversion
C=C1C[C@]23C[C@H]1CC[C@H]2[C@]1(CO)CCC[C@@](C)(C(=O)O)[C@H]1[C@@H]3C(=O)O [GA15 open lactone, 20-hydroxyGA12] | – | – | – | – | – | converted to the same product by AtGAox2, but less efficiently than was the lactone form | no conversion | –
C=C1C[C@]23C[C@H]1CC[C@H]2[C@@]12CCC[C@@](C)(C(=O)OC1)[C@H]2[C@@H]3C(=O)O [GA15] | – | – | – | – | – | converted to a single product | converted to a single product | –
C=C1C[C@]23C[C@@]1(O)CC[C@H]2[C@@]12CCC[C@@](C)(C(=O)O1)[C@H]2[C@@H]3C(=O)O [GA20] | 25 % yield | to a much greater extent than did the wild-type | 100 % yield | 86 % yield | 50 % yield | – | – | –
prohexadione-calcium | – | – | – | – | – | – | – | conversion of GA29 to GA29-catabolite [4]: inhibited

— patent US7262340B2, “Gibberellin 2-oxidase” (Rothamsted Research Limited, priority 1998, dated 2007)
